Source: article PMC12281424, “A Rac-specific competitive inhibitor of guanine nucleotide binding reduces metastasis in triple-negative breast cancer” (Cell Reports Medicine, 2025)

Key:
[1] = In vivo pharmacokinetics and tissue distribution; set-up: species or system mouse; conditions: 25 mg/kg i.p.
Description: A41 was administrated intraperitoneally (25 mg/kg, aqueous solution of A41 in 5% DMSO, 50% PEG) in 2 months old C57Bl/6 after 4 h of fasting. After 5, 30, 60, 120 and 360 minutes following injection, mice (n = 3 per kinetic time) were sacrificed and tissues (blood, heart, lung, liver, kidney and brain) were collected. Control mice (n = 5) were used to get blank tissues for mass spectrometry analyses. Blood was collected by cardiac puncture into tubes containing 10% EDTA. Immediately after blood collection, plasma was separated by centrifugation for 5 min at 4 °C (2,000 × g). Solid tissues were rapidly excised and snap frozen in liquid nitrogen before to be disrupted and homogenized in PBS (1/10; wt/vol) using TissueLyser II (Quiagen). A41 concentrations were determined in mouse plasma and tissues by liquid chromatography-tandem mass spectrometry (LC-MS/MS). All solvents were LC-MS grade and purchased from Biosolve (Valkenswaard, Netherlands). A41 10× standard solutions were prepared and serially diluted in acetonitrile to obtain 8 standard solutions ranging 10-20,000 nmol/L. A41 10X standard solutions (5 μL or 20 μL) were added to blank plasma (45 μL) or blank tissue homogenates (180 μL), respectively, to get final concentrations ranging 1-2,000 nmol/L. Acetonitrile (5 μL or 20 μL) was added to plasma (45 μL) or tissue samples (180 μL). Tissue homogenates (standards and samples) were then centrifugated for 5 min at 5,000 × g for 5 min at 10 °C and supernatants (100 μL) were collected. Proteins were precipitated by the addition of 150 μL or 300 μL of acetonitrile containing labeled D3-A41 as internal standard (200 nmol/L) in all plasma (50 μL) and tissue supernatants (100 μL), respectively. After centrifugation (17,000 × g, 10 min, 10 °C), supernatants were collected and dried under a gentle stream of nitrogen. Dried samples were finally reconstituted with 25% acetonitrile containing 0.1% formic acid (100 μL), and injected into the LC-MS/MS system. Analyses were performed on a Xevo® TQD mass spectrometer with an electrospray (ESI) interface and an Acquity H-Class® UPLC™ device (Waters Corporation, Milford, MA, USA). Samples (10 μL) were injected onto a BEH C18 column (1.7 μm; 2.1 × 50 mm, Waters Corporation) held at 60 °C, and compounds were separated with a linear gradient of mobile phase B (acetonitrile, 0.1% formic acid) in mobile phase A (water, 0.1% formic acid) at a flow rate of 500 μL/min. […] A41 and its internal standard d3-A41 were then detected by the mass spectrometer with the ESI interface operating in the positive ion mode (capillary voltage, 3 kV; desolvatation gas (N2) flow and temperature, 900 L/h and 450 °C; source temperature, 120 °C). The multiple reaction monitoring mode was applied for MS/MS detection at the following mass-to-charge (m/z) ratio transitions: 487.1 → 153.0 and 490.2 → 156.0 for A41 and d3-A41, respectively. Cone voltage and collision energy were set at 35 V and 20 eV, respectively. Data acquisition and processing were achieved using MassLynx® and TargetLynx® softwares (version 4.1, Waters Corporation). Chromatographic peak area ratios between A41 and its internal standard constituted the detector responses. Standard solutions were used to plot calibration curves for quantification and dilution factors related to biological matrix preparations were included in calculation. The linearity was expressed by the mean r^2 which was greater than 0.995 for all matrices (linear regression, 1/x weighting, origin excluded). AUC0-6h was calculated as follow: AUC0−6h=∫06hC0e^−Ktdt=C0/K Where K = constant of elimination, and […].
Supplementary Fig. 7: A41 pharmacokinetics. (a) Molecule distribution in plasma and indicatedorgans afterintraperitonealinjectionof A41 (25 mg/kg) in mice(N=3 mice/kinetictimepoint). (b) Pharmacokinetic parametersof A41 calculated in mice after a singleintraperitonealinjection(25mg/kg). AUC = Area Under the Concentration-time curve.

[2] = biological target: Melanocortin MC1 (Homo sapiens, UniProt Q01726); test: Safety screen; type: binding
Sequence of Melanocortin MC1 (Q01726 whole entry): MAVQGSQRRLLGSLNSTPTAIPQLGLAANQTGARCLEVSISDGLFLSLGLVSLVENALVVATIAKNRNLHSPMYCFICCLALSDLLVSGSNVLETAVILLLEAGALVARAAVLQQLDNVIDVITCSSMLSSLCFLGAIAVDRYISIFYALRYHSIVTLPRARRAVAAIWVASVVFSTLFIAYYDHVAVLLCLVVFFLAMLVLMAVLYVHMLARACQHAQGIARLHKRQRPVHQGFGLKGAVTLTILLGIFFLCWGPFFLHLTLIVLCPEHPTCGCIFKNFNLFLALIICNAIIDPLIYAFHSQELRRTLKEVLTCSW
Description: Blood cell counts, kinase profiler, safety screen, bacterial cytotoxicity, Ames, micronucleus assays were performed by the company Eurofins (France).

[3] = biological target: PKCε(h) (Homo sapiens, UniProt Q02156); test: Kinase Profiler; type: biochemical
Description: (§1) The kinase profiler was performed by the company Eurofins (Discovery, Panlab and Cerep).

[4] = biological target: Wee1B(h) (Homo sapiens, UniProt P0C1S8); test: Kinase Profiler; type: biochemical
Sequence of Wee1B(h) (P0C1S8 whole entry): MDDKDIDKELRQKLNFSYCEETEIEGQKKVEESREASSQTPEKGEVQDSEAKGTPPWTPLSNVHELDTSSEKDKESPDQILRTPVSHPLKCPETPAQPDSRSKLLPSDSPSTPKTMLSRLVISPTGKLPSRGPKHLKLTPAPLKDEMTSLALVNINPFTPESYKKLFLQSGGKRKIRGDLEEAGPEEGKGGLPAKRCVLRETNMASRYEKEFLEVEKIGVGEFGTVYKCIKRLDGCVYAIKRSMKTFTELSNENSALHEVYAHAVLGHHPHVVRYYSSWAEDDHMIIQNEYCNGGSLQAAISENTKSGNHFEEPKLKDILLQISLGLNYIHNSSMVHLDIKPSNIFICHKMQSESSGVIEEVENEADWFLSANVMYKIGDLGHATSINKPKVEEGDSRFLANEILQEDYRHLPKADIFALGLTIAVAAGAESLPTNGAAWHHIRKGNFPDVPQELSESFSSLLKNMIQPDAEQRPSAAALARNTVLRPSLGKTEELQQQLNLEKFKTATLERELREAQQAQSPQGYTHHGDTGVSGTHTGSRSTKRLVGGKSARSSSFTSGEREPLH
Description: as §1

[5] = biological target: CDK17/cyclinY(h) (Homo sapiens, UniProt Q00537); test: Kinase Profiler; type: biochemical
Description: (§2) Blood cell counts, kinase profiler, safety screen, bacterial cytotoxicity, Ames, micronucleus assays were performed by the company Eurofins (France). The kinase profiler was performed by the company Eurofins (Discovery, Panlab and Cerep).

[6] = biological target: CK1γ2(h) (Homo sapiens, UniProt P78368); test: Kinase Profiler; type: biochemical
Sequence of CK1γ2(h) (P78368 whole entry): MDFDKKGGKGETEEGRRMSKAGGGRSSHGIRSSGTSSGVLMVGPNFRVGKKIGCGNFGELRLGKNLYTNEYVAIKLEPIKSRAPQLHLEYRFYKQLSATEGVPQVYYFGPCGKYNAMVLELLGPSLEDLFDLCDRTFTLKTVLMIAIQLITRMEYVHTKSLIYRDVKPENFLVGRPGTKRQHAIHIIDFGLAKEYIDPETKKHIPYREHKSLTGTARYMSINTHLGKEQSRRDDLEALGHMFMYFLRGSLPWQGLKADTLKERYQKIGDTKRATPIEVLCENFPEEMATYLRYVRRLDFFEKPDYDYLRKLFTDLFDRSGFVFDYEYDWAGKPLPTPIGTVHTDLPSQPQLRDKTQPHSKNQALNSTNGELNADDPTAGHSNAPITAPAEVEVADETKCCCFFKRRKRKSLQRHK
Description: as §2

[7] = biological target: Pim-3(h) (Homo sapiens, UniProt Q86V86); test: Kinase Profiler; type: biochemical
Description: as §2

[8] = biological target: IRR(h) (Homo sapiens, UniProt P14616); test: Kinase Profiler; type: biochemical
Description: as §2

[9] = biological target: CaMKIIβ(h) (Homo sapiens, UniProt Q13554); test: Kinase Profiler; type: biochemical
Sequence of CaMKIIβ(h) (Q13554 whole entry): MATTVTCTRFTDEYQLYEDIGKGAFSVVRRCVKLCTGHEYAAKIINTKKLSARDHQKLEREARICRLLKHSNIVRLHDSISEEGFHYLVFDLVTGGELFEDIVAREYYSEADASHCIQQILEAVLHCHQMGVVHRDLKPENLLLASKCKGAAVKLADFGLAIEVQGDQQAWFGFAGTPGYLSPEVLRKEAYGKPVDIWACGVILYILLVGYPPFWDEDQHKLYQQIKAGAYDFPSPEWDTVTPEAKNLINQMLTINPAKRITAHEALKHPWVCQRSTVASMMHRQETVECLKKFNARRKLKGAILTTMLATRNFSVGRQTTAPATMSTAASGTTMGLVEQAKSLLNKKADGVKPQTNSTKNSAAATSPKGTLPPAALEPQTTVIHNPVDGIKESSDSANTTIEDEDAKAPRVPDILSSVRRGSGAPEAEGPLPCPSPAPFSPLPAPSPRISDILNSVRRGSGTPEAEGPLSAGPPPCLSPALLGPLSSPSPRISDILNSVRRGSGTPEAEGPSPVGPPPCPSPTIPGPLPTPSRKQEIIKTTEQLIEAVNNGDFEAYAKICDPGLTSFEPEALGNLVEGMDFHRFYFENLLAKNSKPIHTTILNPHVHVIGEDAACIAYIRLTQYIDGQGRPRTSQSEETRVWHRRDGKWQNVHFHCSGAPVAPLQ
Description: as §1

[10] = biological target: PKCι(h) (Homo sapiens, UniProt P41743); test: Kinase Profiler; type: biochemical
Description: as §1

[11] = biological target: TrkC(h) (Homo sapiens, UniProt Q16288); test: Kinase Profiler; type: biochemical
Sequence of TrkC(h) (Q16288 32-839): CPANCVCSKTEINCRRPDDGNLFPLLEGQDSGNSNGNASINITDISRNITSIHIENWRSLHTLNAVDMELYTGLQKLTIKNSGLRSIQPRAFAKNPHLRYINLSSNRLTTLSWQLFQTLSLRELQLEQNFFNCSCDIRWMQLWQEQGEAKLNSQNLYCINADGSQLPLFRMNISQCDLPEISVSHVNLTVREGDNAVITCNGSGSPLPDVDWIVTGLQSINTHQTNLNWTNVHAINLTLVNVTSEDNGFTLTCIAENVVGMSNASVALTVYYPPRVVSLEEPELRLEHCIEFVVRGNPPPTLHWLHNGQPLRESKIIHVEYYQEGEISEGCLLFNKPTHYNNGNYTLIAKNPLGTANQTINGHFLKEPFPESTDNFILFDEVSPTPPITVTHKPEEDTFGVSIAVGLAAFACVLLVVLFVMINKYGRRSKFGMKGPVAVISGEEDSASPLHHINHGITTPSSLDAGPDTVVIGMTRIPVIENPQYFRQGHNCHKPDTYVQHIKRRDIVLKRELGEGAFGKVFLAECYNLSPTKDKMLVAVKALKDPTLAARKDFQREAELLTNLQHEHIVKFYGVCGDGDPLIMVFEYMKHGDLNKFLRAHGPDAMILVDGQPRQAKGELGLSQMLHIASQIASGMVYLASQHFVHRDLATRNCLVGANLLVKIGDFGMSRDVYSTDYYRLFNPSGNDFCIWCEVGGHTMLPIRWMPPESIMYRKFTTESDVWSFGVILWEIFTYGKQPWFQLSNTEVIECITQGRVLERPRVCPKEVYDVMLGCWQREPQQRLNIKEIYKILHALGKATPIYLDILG
Description: as §1

[12] = biological target: ASK1(h) (Homo sapiens, UniProt Q99683); test: Kinase Profiler; type: biochemical
Description: as §2

[13] = biological target: AAK1(h) (Homo sapiens, UniProt Q2M2I8); test: Kinase Profiler; type: biochemical
Description: as §1

[14] = biological target: PI3K (p110d/p85a)(m) (Mus musculus, UniProt O35904); test: Kinase Profiler; type: biochemical
Description: as §2

[15] = biological target: Angiotensin AT1 (Homo sapiens, UniProt P30556); test: Safety screen; type: binding
Sequence of Angiotensin AT1 (P30556 whole entry): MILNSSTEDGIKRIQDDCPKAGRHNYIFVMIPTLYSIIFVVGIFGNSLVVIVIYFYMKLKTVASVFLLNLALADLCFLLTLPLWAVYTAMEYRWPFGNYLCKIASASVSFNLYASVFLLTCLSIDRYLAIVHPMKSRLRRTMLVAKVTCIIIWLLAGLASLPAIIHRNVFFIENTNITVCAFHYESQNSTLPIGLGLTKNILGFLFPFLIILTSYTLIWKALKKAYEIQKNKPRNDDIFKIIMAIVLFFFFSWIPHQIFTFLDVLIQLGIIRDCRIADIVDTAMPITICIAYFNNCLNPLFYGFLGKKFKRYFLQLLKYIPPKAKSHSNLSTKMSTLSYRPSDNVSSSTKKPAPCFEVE
Description: as §2

[16] = biological target: Cholinesterase, Acetyl, ACES (Homo sapiens, UniProt P22303)
Sequence of Cholinesterase, Acetyl, ACES (P22303 32-614): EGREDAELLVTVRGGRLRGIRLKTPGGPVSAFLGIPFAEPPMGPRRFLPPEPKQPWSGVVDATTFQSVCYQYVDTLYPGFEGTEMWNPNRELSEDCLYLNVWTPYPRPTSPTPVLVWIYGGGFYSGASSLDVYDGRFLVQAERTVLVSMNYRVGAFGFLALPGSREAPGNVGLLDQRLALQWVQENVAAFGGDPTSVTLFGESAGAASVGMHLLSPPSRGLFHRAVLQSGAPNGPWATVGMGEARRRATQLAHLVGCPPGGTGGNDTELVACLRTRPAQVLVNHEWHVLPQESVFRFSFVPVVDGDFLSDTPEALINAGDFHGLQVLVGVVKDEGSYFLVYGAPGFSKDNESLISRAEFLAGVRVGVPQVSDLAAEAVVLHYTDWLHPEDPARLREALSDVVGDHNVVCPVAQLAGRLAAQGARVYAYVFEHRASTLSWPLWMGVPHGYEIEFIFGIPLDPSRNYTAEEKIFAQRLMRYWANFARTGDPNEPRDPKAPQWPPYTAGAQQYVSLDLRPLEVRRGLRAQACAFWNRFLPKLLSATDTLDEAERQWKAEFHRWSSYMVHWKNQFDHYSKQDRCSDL
Description: as §2

[17] = biological target: EphB1(h) (Homo sapiens, UniProt P54762); test: Kinase Profiler; type: biochemical
Sequence of EphB1(h) (P54762 18-984): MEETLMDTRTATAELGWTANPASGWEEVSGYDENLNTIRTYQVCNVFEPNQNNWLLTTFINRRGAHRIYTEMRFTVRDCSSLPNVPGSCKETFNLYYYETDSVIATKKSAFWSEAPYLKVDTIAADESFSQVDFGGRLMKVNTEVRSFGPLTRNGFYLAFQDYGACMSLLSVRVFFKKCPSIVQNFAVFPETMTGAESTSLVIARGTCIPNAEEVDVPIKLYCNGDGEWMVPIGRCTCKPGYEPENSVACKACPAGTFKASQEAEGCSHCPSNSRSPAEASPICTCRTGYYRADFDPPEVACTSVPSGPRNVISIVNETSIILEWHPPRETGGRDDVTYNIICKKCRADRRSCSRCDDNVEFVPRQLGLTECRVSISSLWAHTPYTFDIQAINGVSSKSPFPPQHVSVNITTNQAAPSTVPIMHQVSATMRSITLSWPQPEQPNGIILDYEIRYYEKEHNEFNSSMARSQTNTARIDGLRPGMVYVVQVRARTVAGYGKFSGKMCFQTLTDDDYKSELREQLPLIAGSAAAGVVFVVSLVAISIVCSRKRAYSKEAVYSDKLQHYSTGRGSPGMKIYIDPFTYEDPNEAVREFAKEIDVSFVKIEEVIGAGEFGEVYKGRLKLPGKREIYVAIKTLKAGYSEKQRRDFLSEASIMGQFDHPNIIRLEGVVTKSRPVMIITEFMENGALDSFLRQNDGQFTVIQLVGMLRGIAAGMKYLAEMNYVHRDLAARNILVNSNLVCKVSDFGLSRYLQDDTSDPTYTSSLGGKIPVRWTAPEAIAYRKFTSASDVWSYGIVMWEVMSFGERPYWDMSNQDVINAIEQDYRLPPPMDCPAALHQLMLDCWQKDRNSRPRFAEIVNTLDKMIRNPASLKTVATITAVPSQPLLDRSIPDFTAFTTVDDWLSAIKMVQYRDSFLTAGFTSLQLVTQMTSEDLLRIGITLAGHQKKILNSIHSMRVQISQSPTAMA
Description: as §2

[18] = biological target: TRB2(h) (Homo sapiens, UniProt Q92519); test: Kinase Profiler; type: biochemical
Sequence of TRB2(h) (Q92519 whole entry): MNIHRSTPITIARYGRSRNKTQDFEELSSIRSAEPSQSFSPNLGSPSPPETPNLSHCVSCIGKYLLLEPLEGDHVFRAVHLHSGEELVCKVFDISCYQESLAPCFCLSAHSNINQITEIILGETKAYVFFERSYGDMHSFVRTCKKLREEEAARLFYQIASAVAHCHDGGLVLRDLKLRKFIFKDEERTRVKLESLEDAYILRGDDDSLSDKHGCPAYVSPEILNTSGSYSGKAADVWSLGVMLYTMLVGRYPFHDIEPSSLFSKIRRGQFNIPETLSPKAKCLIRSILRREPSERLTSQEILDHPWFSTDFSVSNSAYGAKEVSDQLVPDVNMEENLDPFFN
Description: as §1

In the case of `COc1ccc(OC)c(NS(=O)(=O)c2ccc(NC(=O)CCSc3ccc(C)cc3)cc2)c1` [Compound A41], the C0 [1] was 4335 ng/mL, the blood-brain barrier crossing [1] was “could not cross the blood-brain barrier” and the “t ½” value [1] was 1.6294 h. The “time over which plasma concentration declined” value [1] was 2 to 3 h, the “tissue concentration, brain” value [1] was “extremely low concentration” and the “tissue concentration, kidney” value [1] was “highest concentration”. The “tissue distribution, liver, heart, and lungs” value [1] was “detected”, the AUC0-6h ([1]; parameter list) was 14.3 µg·h/mL and the AUC0-6h ([1]; plasma) was 14.3 (µg/ mL)xh. For the same compound, the “Cmax (peak plasma concentration)” value ([1]; plasma) was 15056 ± 500 ng/mL, the “% inh.” value [2] was 14% and the “Activity(%)” value [3] was 102%. For the same compound, the “Activity(%)” value [4] was 89%, the “Activity(%)” value [5] was 96% and the “Activity(%)” value [6] was 112%. For the same compound, the “Activity(%)” value [7] was 101%, the “Activity(%)” value [8] was 118% and the “Activity(%)” value [9] was 112%. The “Activity(%)” value [10] was 93%, the “Activity(%)” value [11] was 104% and the “Activity(%)” value [12] was 94%. The “Activity(%)” value [13] was 105%, the “Activity(%)” value [14] was 100% and the “% inh.” value [15] was 17%. For the same compound, the “% inh.” value [16] was 64%, the “Activity(%)” value [17] was 111% and the “Activity(%)” value [18] was 104%.
